Data reported in ChEMBL document CHEMBL1201862, “PubChem BioAssay data set” (2004).
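Results reflect a 48-hour exposure of cells in 96-well plates to compound at five concentrations. GI50 marks 50% less growth.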 The source made the active and inactive calls. Cut-off read from the data, not from the text of the source: active = GI50 up to about 1.1 µM and inactive = higher.

Key:
Assay in all cases: DTP human tumour cell line panel, 48 h
OVCAR-4 = test system: OVCAR-4
U-251 = test system: U-251
RPMI-8226 = test system: RPMI-8226
HCC 2998 = test system: HCC 2998
SR = test system: SR
SF-295 = test system: SF-295
OVCAR-8 = test system: OVCAR-8
MOLT-4 = test system: MOLT-4
HOP-62 = test system: HOP-62
DU-145 = test system: DU-145
T47D = test system: T47D
LOX IMVI = test system: LOX IMVI
BT-549 = test system: BT-549
HCT-116 = test system: HCT-116
NCI-H522 = test system: NCI-H522
NCI/ADR-RES = test system: NCI/ADR-RES
HOP-92 = test system: HOP-92
SW-620 = test system: SW-620
UACC-62 = test system: UACC-62
A498 = test system: A498
NCI-H23 = test system: NCI-H23
TK-10 = test system: TK-10
MDA-MB-435 = test system: MDA-MB-435
MDA-N = test system: MDA-N
MDA-MB-231 = test system: MDA-MB-231
OVCAR-3 = test system: OVCAR-3
EKVX = test system: EKVX
HCT-15 = test system: HCT-15
PC-3 = test system: PC-3
786-0 = test system: 786-0
SF-539 = test system: SF-539
SK-MEL-2 = test system: SK-MEL-2
IGROV-1 = test system: IGROV-1
K562 = test system: K562
SK-OV-3 = test system: SK-OV-3
NCI-H226 = test system: NCI-H226
KM12 = test system: KM12
MCF7 = test system: MCF7
ACHN = test system: ACHN
CCRF-CEM = test system: CCRF-CEM
SK-MEL-5 = test system: SK-MEL-5
UO-31 = test system: UO-31
HT-29 = test system: HT-29
SN12C = test system: SN12C
OVCAR-5 = test system: OVCAR-5
M14 = test system: M14
CAKI-1 = test system: CAKI-1
UACC-257 = test system: UACC-257
A549 = test system: A549
COLO 205 = test system: COLO 205
SF-268 = test system: SF-268
Malme-3M = test system: Malme-3M
RXF 393 = test system: RXF 393
SNB-19 = test system: SNB-19
NCI-H460 = test system: NCI-H460
Hs-578T = test system: Hs-578T
HL-60 = test system: HL-60
SNB-75 = test system: SNB-75
SK-MEL-28 = test system: SK-MEL-28

## CCCCNC(=S)Nc1nc(C(=O)NNC(=S)NC2CCCCC2)cs1
OVCAR-4
  GI50: > 100 µM (inactive)
U-251
  GI50: 91.4 µM (inactive)
RPMI-8226
  GI50: > 100 µM (inactive)
HCC 2998
  GI50: > 100 µM (inactive)
SR
  GI50: 8.07 µM (inactive)
SF-295
  GI50: > 100 µM (inactive)
OVCAR-8
  GI50: 69.3 µM (inactive)
MOLT-4
  GI50: > 10 µM (inactive)
HOP-62
  GI50: > 100 µM (inactive)
DU-145
  GI50: > 100 µM (inactive)
T47D
  GI50: > 100 µM (inactive)
LOX IMVI
  GI50: > 100 µM (inactive)
BT-549
  GI50: > 100 µM (inactive)
HCT-116
  GI50: > 100 µM (inactive)
NCI-H522
  GI50: > 100 µM (inactive)
NCI/ADR-RES
  GI50: 74.3 µM (inactive)
HOP-92
  GI50: > 100 µM (inactive)
SW-620
  GI50: > 100 µM (inactive)
UACC-62
  GI50: > 100 µM (inactive)
A498
  GI50: > 100 µM (inactive)
NCI-H23
  GI50: > 100 µM (inactive)
TK-10
  GI50: > 100 µM (inactive)
MDA-MB-435
  GI50: > 100 µM (inactive)
MDA-N
  GI50: > 100 µM (inactive)
MDA-MB-231
  GI50: > 100 µM (inactive)
OVCAR-3
  GI50: 91.8 µM (inactive)
EKVX
  GI50: > 100 µM (inactive)
HCT-15
  GI50: 32.7 µM
PC-3
  GI50: > 100 µM (inactive)
786-0
  GI50: > 100 µM (inactive)
SF-539
  GI50: > 100 µM (inactive)
SK-MEL-2
  GI50: > 100 µM (inactive)
IGROV-1
  GI50: 66.5 µM (inactive)
K562
  GI50: 75.5 µM (inactive)
SK-OV-3
  GI50: 49 µM (inactive)
NCI-H226
  GI50: > 100 µM (inactive)
KM12
  GI50: > 100 µM (inactive)
MCF7
  GI50: > 100 µM (inactive)
ACHN
  GI50: 62.7 µM (inactive)
CCRF-CEM
  GI50: 67.6 µM (inactive)
SK-MEL-5
  GI50: 67.6 µM (inactive)
UO-31
  GI50: 45.6 µM (inactive)
HT-29
  GI50: > 100 µM (inactive)
SN12C
  GI50: > 100 µM (inactive)
OVCAR-5
  GI50: > 100 µM (inactive)
M14
  GI50: > 100 µM (inactive)
CAKI-1
  GI50: > 100 µM (inactive)
UACC-257
  GI50: > 100 µM (inactive)
A549
  GI50: > 100 µM (inactive)
COLO 205
  GI50: > 100 µM (inactive)
SF-268
  GI50: > 100 µM (inactive)
Malme-3M
  GI50: > 100 µM (inactive)

## NC(N)=NC(P(=O)(O)O)P(=O)(O)O
HCC 2998
  GI50: > 100 µM (inactive)
SF-295
  GI50: > 100 µM (inactive)
HOP-62
  GI50: > 100 µM (inactive)
DU-145
  GI50: > 100 µM (inactive)
LOX IMVI
  GI50: > 100 µM (inactive)
BT-549
  GI50: > 100 µM (inactive)
HCT-116
  GI50: > 100 µM (inactive)
NCI-H522
  GI50: > 100 µM (inactive)
NCI/ADR-RES
  GI50: > 100 µM (inactive)
RXF 393
  GI50: > 100 µM (inactive)
UACC-62
  GI50: > 100 µM (inactive)
NCI-H23
  GI50: > 100 µM (inactive)
TK-10
  GI50: > 100 µM (inactive)
MDA-N
  GI50: > 100 µM (inactive)
MDA-MB-231
  GI50: > 100 µM (inactive)
OVCAR-3
  GI50: > 100 µM (inactive)
EKVX
  GI50: > 100 µM (inactive)
HCT-15
  GI50: > 100 µM
PC-3
  GI50: > 100 µM (inactive)
786-0
  GI50: > 100 µM (inactive)
SF-539
  GI50: > 100 µM (inactive)
SNB-19
  GI50: > 100 µM (inactive)
NCI-H460
  GI50: > 100 µM (inactive)
IGROV-1
  GI50: > 100 µM (inactive)
SK-OV-3
  GI50: > 100 µM (inactive)
NCI-H226
  GI50: > 100 µM (inactive)
KM12
  GI50: > 100 µM (inactive)
MCF7
  GI50: > 100 µM (inactive)
ACHN
  GI50: > 100 µM (inactive)
SK-MEL-5
  GI50: > 100 µM (inactive)
UO-31
  GI50: > 100 µM (inactive)
OVCAR-5
  GI50: > 100 µM (inactive)
M14
  GI50: > 100 µM (inactive)
CAKI-1
  GI50: > 100 µM (inactive)
UACC-257
  GI50: > 100 µM (inactive)
A549
  GI50: > 100 µM (inactive)
COLO 205
  GI50: > 100 µM (inactive)
SF-268
  GI50: > 100 µM (inactive)
Hs-578T
  GI50: 0.254 µM (active)
Malme-3M
  GI50: > 100 µM (inactive)

## COc1ccc2nc(-c3ccc(N)cc3)sc2c1
OVCAR-4
  GI50: > 100 µM (inactive)
U-251
  GI50: 35.6 µM (inactive)
HCC 2998
  GI50: 42 µM (inactive)
SR
  GI50: 32.4 µM (inactive)
SF-295
  GI50: 43.1 µM (inactive)
OVCAR-8
  GI50: 52.5 µM (inactive)
MOLT-4
  GI50: 13.6 µM (inactive)
HOP-62
  GI50: 42.2 µM (inactive)
BT-549
  GI50: > 100 µM (inactive)
HCT-116
  GI50: > 100 µM (inactive)
NCI-H522
  GI50: 23.6 µM (inactive)
NCI/ADR-RES
  GI50: > 100 µM (inactive)
HOP-92
  GI50: > 100 µM (inactive)
RXF 393
  GI50: > 100 µM (inactive)
SW-620
  GI50: > 100 µM (inactive)
HL-60
  GI50: 47.5 µM (inactive)
UACC-62
  GI50: > 100 µM (inactive)
A498
  GI50: 53.1 µM (inactive)
NCI-H23
  GI50: > 100 µM (inactive)
TK-10
  GI50: > 100 µM (inactive)
MDA-MB-435
  GI50: > 100 µM (inactive)
MDA-MB-231
  GI50: 81.8 µM (inactive)
OVCAR-3
  GI50: > 100 µM (inactive)
EKVX
  GI50: 32.1 µM (inactive)
HCT-15
  GI50: 50.5 µM
SNB-75
  GI50: 44.8 µM (inactive)
PC-3
  GI50: 48 µM (inactive)
786-0
  GI50: 43.9 µM (inactive)
SF-539
  GI50: > 100 µM (inactive)
SNB-19
  GI50: 18.5 µM (inactive)
SK-MEL-2
  GI50: > 100 µM (inactive)
NCI-H460
  GI50: 54 µM (inactive)
IGROV-1
  GI50: 70.5 µM (inactive)
K562
  GI50: > 100 µM (inactive)
SK-OV-3
  GI50: > 100 µM (inactive)
NCI-H226
  GI50: 34.2 µM (inactive)
KM12
  GI50: 22.3 µM (inactive)
MCF7
  GI50: > 100 µM (inactive)
ACHN
  GI50: 51.6 µM (inactive)
CCRF-CEM
  GI50: 4.89 µM (inactive)
SK-MEL-5
  GI50: 61.4 µM (inactive)
UO-31
  GI50: 29.4 µM (inactive)
HT-29
  GI50: 66.5 µM (inactive)
OVCAR-5
  GI50: > 100 µM (inactive)
M14
  GI50: > 100 µM (inactive)
CAKI-1
  GI50: > 100 µM (inactive)
UACC-257
  GI50: > 100 µM (inactive)
SK-MEL-28
  GI50: > 100 µM (inactive)
A549
  GI50: 68.1 µM (inactive)
COLO 205
  GI50: > 100 µM (inactive)
SF-268
  GI50: 63.2 µM (inactive)
Hs-578T
  GI50: 34.6 µM (inactive)
Malme-3M
  GI50: > 100 µM (inactive)
